Source: patent US20100239500A1, “SUBSTITUTED TRIAZINE COMPOUNDS FOR NERVE REGENERATION” (priority 2007, published 2010)

Assays:
cAMP levels in CGNs = experiment: cAMP levels in CGNs; type: cell-based; conditions: two hours, PDL or PDL/myelin, forskolin at concentrations indicated in chart
Description: CGNs were cultured for two hours on PDL or on PDL/myelin in the absence or presence of the four lead compounds at […] (F) at the concentrations indicated in the chart. Forskolin increased neuronal cAMP levels by 100-250-fold, while the lead compounds produced no significant increases.

E15 rat spinal neurons = experiment: Growth of spinal neurons on CSPG substrates; type: cell-based; conditions: two days
Description: E15 rat spinal neurons were cultured on LN, or on LN and CSPGs (LN/CSPG) for two days. They were stained for nuclei (blue) and neuronal beta-tubulin (green).

CGNs = experiment: Neurite growth of CGNs on permissive substrates (PDL, laminin); type: cell-based; conditions: CGNs on PDL or laminin (LN)
Description: CGNs were cultured on PDL or laminin (LN) substrates in the absence or presence of one of the four lead compounds, or on LN in the presence of Gö6976. Neurons grew neurites on PDL, and grew longer neurites on LN.
(§1) The triazine compounds were added to cultures of primary cerebellar granule neurons (CGNs) to test their ability to promote neurite growth on an inhibitory substrate (PDL/central nervous system myelin). […] The compounds can promote growth on other inhibitory substrates as well. When a mixture of inhibitory chondroitin sulfate proteoglycans (CSPGs) on PDL was used as a substrate, neurite growth of CGNs was increased by each compound, as shown in FIG. 3. The compounds evidently act by overcoming inhibitory signals.

[1] = tested on: cerebellar granule neurons (CGNs); experiment: Neurite growth of CGNs on CSPG substrates; type: cell-based; conditions: laminin/CSPG substrate
Description: as §1

[2] = tested on: cerebellar granule neurons (CGNs); experiment: High-content screen and dose-response of CGN neurite growth on PDL/myelin; type: cell-based; conditions: library compounds at 5 μM shown
Description: FIG. 2 is data from a high-content screen of neurite growth on […] (PDL)/myelin. The data for 312 compounds are summarized for total neurite growth normalized to the PDL control. The first three bars show PDL (blue), PDL/myelin (red), and PDL/myelin/dbcAMP (green). […] Straight lines drawn across data represent growth levels with dbcAMP, PDL, myelin, and 50% of the myelin level. The majority of compounds had little or no effect at the concentrations tested (5 μM is shown). […] These four compounds are subsequently referred to as lead compounds.
CGNs were cultured on PDL (control) or on myelin in the presence of the 4 hit compounds at concentrations (in nM) shown. The Cellomics Kinetic Scan Reader (an automated microscope) was used to evaluate average neurite length per neuron in each condition. Growth on myelin in the absence of compounds was set at 100% (origin of y-axis). The black horizontal line represents growth on the control (PDL) substrate; thus growth at or above this line represents complete reversal of the myelin inhibition. Each compound completely reversed growth inhibition by the myelin.
The triazine compounds were added to cultures of primary cerebellar granule neurons (CGNs) to test their ability to promote neurite growth on an inhibitory substrate (PDL/central nervous system myelin). […] The compounds can promote growth on other inhibitory substrates as well. […]

cPKC = experiment: In vitro PKC assay; type: biochemical; conditions: preincubated directly with the enzyme; lead compounds at concentrations optimally effective on cells

`C=C[C@@]1(C)CC(=O)[C@]2(O)[C@@]3(C)[C@@H](O)CCC(C)(C)[C@@H]3[C@H](O)[C@H](OC(C)=O)[C@@]2(C)O1` [Forskolin, forskolin] was tested, and the “increase of neuronal cAMP levels” value (cAMP levels in CGNs) was 100-250 fold.
With `Cn1c2ccccc2c2c3c(c4c5ccccc5n(CCC#N)c4c21)CNC3=O` [Go6976] the “growth of spinal neurons on LN/CSPG” value (E15 rat spinal neurons) was “somewhat restored”, the “neurite growth on permissive substrates” value (CGNs) was “significantly increased growth on LN” and the “neurite growth on LN/CSPG mixture” value [1] was “largely reversed”.
With `CCCC(=O)Nc1ncnc2c1ncn2[C@@H]1O[C@@H]2COP(=O)(O)O[C@H]2[C@H]1OC(=O)CCC` [dbcAMP] the “total neurite growth normalized to the PDL control” value [2] was “inhibition is overcome”.
In the case of Calphostin C, the “effect on cPKC activity” value (cPKC) is reported as “inhibits cPKC”.
